Measured values reported in ChEMBL document CHEMBL1127748, “Binding of fluorescent and spin-labeled C-terminal hirudin analogs to thrombin” (J Med Chem, 1994).

Columns and labels:
[1] = target: T1, Prothrombin (Homo sapiens, UniProt P00734); experiment: Inhibitory concentration against Thrombin; 0.029-0.15 uM
[2] = target: T1, Prothrombin; experiment: Binding affinity values determined by clotting inhibition assays

For `CC[C@H](C)[C@H](NC(=O)[C@H]1CCCN1C(=O)[C@H](CCC(=O)O)NC(=O)[C@@H](Cc1ccc(O)cc1)NC(=O)CCC(=O)O)C(=O)N1CCC[C@@H]1C(=O)N[C@@H](CCC(=O)O)C(=O)N[C@H](CCC(=O)O)C(=O)N[C@@H](C)C(=O)N[C@H](CC1CCCCC1)C(=O)N[C@@H](CCC(=O)O)C(=O)O`, which IC50 [1] is on record?
Its IC50 is 29 nM.

With `CC[C@H](C)[C@H](NC(=O)[C@H]1CCCN1C(=O)[C@H](CCC(=O)O)NC(=O)[C@@H](Cc1ccc(O)cc1)NC(=O)CC(N)C(=O)CCCCCCCNC(=O)c1ccccc1N)C(=O)N1CCC[C@@H]1C(=O)N[C@@H](CCC(=O)O)C(=O)N[C@H](CCC(=O)O)C(=O)N[C@@H](C)C(=O)N[C@H](CC1CCCCC1)C(=O)N[C@@H](CCC(=O)O)C(=O)O` (some centres undefined) as the compound, how does the Ki [2] read?
Its Ki is 100 nM.

`CC[C@H](C)[C@H](NC(=O)[C@H]1CCCN1C(=O)[C@H](CCC(=O)O)NC(=O)[C@@H](Cc1ccc(O)cc1)NC(=O)CC(N)C(=O)CCCCCCCNC(=O)C1=CC(C)(C)N(O)C1(C)C)C(=O)N1CCC[C@@H]1C(=O)N[C@@H](CCC(=O)O)C(=O)N[C@H](CCC(=O)O)C(=O)N[C@@H](C)C(=O)N[C@H](CC1CCCCC1)C(=O)N[C@@H](CCC(=O)O)C(=O)O` (some centres undefined) was tested. Which Ki [2] did it give?
The Ki was 100 nM.

How did the Ki [2] turn out when `CC[C@H](C)[C@H](NC(=O)[C@H]1CCCN1C(=O)[C@H](CCC(=O)O)NC(=O)[C@@H](Cc1ccc(O)cc1)NC(=O)CC(N)C(=O)CCCCCCCNc1cccc2c(N(C)C)cccc12)C(=O)N1CCC[C@@H]1C(=O)N[C@@H](CCC(=O)O)C(=O)N[C@H](CCC(=O)O)C(=O)N[C@@H](C)C(=O)N[C@H](CC1CCCCC1)C(=O)N[C@@H](CCC(=O)O)C(=O)O` (some centres undefined) was run?
The Ki was 100 nM.
